Results reported in patent EP0435682A2, “The use of inclusion complexes of prostaglandins with cyclodextrins in the treatment of ocular hypertension” (ALLERGAN, INC., priority 1989, dated 1991).
Marks after values point to notes of the source that are not given here.

System: New Zealand Albino rabbits
Assay: Intraocular pressure by applanation pneumatonometry after topical application to one eye
Type: in vivo
Details: 0.1% (w/v) solution, 25 µl to the surface of one eye
Protocol: Prostaglandin F2α TRIS salt was dissolved in either distilled water or in a 5% aqueous hydroxypropyl-β-cyclodextrin solution, to provide 0.1% (w/v) solutions. Two groups of experimental New Zealand Albino rabbits, containing 6 and 8 rabbits, respectively, were treated by administering 25µℓ of each solution to the surface of one eye. The contralateral eye received vehicle as a control. Intraocular pressure (IOP) was measured by applanation pneumatonometry model (Model 3ORT, manufactured by Digilab) at the time of administration, and at intervals of 1, 2, 3, 4, and 6 hours thereafter.

Substance: Prostaglandin F2α TRIS salt [Prostaglandin F2α (in aqueous)]
- CHANGES IN INTRAOCULAR PRESSURE (mmHg) AT PREDETERMINED TIMES (HR) (1.0 HR after administration): -6.3* mmHg
- CHANGES IN INTRAOCULAR PRESSURE (mmHg) AT PREDETERMINED TIMES (HR) (2.0 HR after administration): -3.0 mmHg
- CHANGES IN INTRAOCULAR PRESSURE (mmHg) AT PREDETERMINED TIMES (HR) (3.0 HR after administration): -3.0 mmHg
- CHANGES IN INTRAOCULAR PRESSURE (mmHg) AT PREDETERMINED TIMES (HR) (4.0 HR after administration): -1.5 mmHg
- CHANGES IN INTRAOCULAR PRESSURE (mmHg) AT PREDETERMINED TIMES (HR) (6.0 HR after administration): 0 mmHg
